# Source: patent publication US20120245137A1 (Zalicus Pharmaceuticals Ltd., priority 2009, published 2012)
# Like-named read-outs stand apart in the source and are kept apart here.
# What was measured:
# Type in all cases: cell-based
# Human Cav 2.2 channels = Human Cav 2.2 channels (Homo sapiens, UniProt Q00975); assay: Fluorescent assay for CaV2.2 channels using potassium depolarization (VIPR/FLIPR); settings: FLIPR data
# In short: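 Fluo-4 calcium fluorescence (480/535 nm) was recorded on VIPR or FLIPR after depolarization to 70 mM final potassium. Before this, cells were preincubated 30 min at 25 °C with compound in 4–30 mM potassium, so that state-dependent block could be assessed; the cells were HEK293 coexpressing Cav2.2, α2δ, β and Kir2.3.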
# T-type calcium channel [1] = molecular target: T-type calcium channel (Homo sapiens, UniProt O43497); assay: T-type channel blocking, FLIPR data (Table 6); settings: CAv3.1
# Excerpt: (§1) Another method, high-throughput spectrophotometric assay, utilizes loading of the cell lines with a fluorescent dye sensitive to intracellular calcium concentration and subsequent examination of the effects of compounds on the ability of depolarization by potassium chloride or other means to alter intracellular calcium levels.
# T-type calcium channel [2] = molecular target: T-type calcium channel (Homo sapiens, UniProt O95180); assay: T-type channel blocking, FLIPR data (Table 6)
# Excerpt: as §1
# CAv1.2 = CAv1.2 (Homo sapiens, UniProt Q13936); assay: FLIPR data, CAv1.2 channel blocking (Table 6); settings: inactivated state, read-out: CAv1.2 IC50 Inact.
# [3] = molecular target: N-type calcium channel subunits (α1B, α2δ, and β3a) (Homo sapiens, UniProt Q00975); assay: Block of Cav2.2 channel, whole cell voltage clamp, manual and PatchXpress; settings: Table 5; table follows Assay Example 3 (whole cell voltage clamp / PatchXpress); assay not given
# In short: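 Percent block taken as current amplitude ratio with versus without compound, applied in rising doses; IC50 fitted where one cell received multiple doses. Protocol: 50 ms pulses to +20 mV at 0.067 Hz from […] or −90 mV holding; P/n leak subtraction, no junction-potential correction; manual and PatchXpress recordings.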
# [4] = molecular target: human α1H T-type channels (Homo sapiens, UniProt O95180); assay: T-type calcium channel block, whole cell patch clamp, α1H; settings: HEK cells stably expressing human α1H; mainly non-inactivated protocol; values above 10,000 nM represented as 10000
# In short: (§2)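 Using standard patch-clamp, T-type currents were recorded from stably transfected human α1G or α1H HEK 293 cells. Separate non-inactivating and inactivation voltage protocols distinguished resting from voltage-dependent block by locally applied compound in 0.1-0.01% DMSO.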
# [5] = molecular target: human α1G T-type channels (Homo sapiens, UniProt O43497); assay: T-type calcium channel block, whole cell patch clamp, α1G; settings: HEK cells stably expressing human α1G; mainly non-inactivated protocol; values above 10,000 nM represented as 10000
# In short: as §2
# [6] = closed state, read-out: CAv2.2 IC50 Closed
# [7] = inactivated state, read-out: CAv2.2 IC50 Inact.
# [8] = CAv3.2, inactivated state, read-out: CAv3.2 IC50 Inact.
# [9] = CAv3.2, closed state, read-out: CAv3.2 IC50 Closed
# Sequence of human α1G T-type channels (O43497 whole entry): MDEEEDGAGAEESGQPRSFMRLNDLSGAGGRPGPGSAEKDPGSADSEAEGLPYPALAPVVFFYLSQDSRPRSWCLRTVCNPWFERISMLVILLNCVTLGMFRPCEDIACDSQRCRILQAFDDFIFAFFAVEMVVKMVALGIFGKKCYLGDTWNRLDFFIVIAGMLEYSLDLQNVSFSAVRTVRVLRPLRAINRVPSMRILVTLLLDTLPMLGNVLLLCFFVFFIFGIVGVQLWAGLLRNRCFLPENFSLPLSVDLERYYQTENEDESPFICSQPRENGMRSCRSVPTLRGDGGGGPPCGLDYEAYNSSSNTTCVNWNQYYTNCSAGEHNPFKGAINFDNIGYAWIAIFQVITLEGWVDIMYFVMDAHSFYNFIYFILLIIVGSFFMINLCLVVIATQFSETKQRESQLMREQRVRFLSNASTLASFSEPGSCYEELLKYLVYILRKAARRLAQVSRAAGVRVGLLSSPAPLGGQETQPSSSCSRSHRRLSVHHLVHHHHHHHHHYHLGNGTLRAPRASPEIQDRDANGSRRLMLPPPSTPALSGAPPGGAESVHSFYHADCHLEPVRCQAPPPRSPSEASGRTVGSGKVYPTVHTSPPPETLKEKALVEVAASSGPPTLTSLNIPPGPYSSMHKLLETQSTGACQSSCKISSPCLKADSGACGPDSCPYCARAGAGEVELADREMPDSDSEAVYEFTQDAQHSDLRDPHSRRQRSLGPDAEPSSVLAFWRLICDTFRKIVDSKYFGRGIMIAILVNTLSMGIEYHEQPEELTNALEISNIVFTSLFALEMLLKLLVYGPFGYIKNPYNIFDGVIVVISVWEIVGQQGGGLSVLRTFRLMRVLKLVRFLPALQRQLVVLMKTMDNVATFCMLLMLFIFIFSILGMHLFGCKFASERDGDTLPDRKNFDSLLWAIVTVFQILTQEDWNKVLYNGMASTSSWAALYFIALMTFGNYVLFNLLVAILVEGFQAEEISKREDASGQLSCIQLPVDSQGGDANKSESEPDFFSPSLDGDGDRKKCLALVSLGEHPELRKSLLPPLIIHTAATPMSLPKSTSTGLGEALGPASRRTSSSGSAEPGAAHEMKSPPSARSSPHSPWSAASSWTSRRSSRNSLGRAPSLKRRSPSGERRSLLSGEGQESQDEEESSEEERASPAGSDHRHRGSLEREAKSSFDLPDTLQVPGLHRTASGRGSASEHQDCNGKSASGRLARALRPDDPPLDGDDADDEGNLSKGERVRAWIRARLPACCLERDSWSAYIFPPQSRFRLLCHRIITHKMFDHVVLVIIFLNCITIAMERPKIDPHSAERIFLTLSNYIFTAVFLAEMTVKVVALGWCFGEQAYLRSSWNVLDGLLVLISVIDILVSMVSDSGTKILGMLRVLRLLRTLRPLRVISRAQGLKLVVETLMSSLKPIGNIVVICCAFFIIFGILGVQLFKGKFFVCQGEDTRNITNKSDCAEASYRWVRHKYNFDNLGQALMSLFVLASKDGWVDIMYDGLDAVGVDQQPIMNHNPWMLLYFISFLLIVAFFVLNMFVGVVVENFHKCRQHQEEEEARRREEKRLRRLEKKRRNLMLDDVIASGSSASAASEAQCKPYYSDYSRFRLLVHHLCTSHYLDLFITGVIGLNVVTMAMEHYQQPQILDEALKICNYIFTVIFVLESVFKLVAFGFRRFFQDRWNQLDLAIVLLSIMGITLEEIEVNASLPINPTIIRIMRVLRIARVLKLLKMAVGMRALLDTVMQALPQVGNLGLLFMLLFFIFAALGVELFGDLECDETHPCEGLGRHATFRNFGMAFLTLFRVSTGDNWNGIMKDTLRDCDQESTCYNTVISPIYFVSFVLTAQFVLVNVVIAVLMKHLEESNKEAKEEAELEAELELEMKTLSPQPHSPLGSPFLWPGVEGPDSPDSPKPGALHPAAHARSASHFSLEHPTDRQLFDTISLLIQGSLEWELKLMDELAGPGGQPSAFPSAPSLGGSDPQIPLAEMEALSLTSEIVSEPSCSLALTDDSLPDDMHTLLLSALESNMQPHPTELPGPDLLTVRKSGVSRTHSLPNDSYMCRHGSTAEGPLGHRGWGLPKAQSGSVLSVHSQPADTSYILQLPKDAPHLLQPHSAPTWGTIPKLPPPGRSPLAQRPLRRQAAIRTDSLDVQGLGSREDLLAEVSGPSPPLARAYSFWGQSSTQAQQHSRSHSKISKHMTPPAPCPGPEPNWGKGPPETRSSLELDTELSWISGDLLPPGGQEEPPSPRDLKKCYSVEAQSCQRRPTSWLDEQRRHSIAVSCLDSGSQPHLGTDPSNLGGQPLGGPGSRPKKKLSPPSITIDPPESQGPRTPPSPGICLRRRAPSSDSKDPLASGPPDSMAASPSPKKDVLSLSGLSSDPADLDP
# Sequence of T-type calcium channel (Homo sapiens, UniProt O43497) (O43497 whole entry): as above
# Sequence of human α1H T-type channels (O95180 whole entry): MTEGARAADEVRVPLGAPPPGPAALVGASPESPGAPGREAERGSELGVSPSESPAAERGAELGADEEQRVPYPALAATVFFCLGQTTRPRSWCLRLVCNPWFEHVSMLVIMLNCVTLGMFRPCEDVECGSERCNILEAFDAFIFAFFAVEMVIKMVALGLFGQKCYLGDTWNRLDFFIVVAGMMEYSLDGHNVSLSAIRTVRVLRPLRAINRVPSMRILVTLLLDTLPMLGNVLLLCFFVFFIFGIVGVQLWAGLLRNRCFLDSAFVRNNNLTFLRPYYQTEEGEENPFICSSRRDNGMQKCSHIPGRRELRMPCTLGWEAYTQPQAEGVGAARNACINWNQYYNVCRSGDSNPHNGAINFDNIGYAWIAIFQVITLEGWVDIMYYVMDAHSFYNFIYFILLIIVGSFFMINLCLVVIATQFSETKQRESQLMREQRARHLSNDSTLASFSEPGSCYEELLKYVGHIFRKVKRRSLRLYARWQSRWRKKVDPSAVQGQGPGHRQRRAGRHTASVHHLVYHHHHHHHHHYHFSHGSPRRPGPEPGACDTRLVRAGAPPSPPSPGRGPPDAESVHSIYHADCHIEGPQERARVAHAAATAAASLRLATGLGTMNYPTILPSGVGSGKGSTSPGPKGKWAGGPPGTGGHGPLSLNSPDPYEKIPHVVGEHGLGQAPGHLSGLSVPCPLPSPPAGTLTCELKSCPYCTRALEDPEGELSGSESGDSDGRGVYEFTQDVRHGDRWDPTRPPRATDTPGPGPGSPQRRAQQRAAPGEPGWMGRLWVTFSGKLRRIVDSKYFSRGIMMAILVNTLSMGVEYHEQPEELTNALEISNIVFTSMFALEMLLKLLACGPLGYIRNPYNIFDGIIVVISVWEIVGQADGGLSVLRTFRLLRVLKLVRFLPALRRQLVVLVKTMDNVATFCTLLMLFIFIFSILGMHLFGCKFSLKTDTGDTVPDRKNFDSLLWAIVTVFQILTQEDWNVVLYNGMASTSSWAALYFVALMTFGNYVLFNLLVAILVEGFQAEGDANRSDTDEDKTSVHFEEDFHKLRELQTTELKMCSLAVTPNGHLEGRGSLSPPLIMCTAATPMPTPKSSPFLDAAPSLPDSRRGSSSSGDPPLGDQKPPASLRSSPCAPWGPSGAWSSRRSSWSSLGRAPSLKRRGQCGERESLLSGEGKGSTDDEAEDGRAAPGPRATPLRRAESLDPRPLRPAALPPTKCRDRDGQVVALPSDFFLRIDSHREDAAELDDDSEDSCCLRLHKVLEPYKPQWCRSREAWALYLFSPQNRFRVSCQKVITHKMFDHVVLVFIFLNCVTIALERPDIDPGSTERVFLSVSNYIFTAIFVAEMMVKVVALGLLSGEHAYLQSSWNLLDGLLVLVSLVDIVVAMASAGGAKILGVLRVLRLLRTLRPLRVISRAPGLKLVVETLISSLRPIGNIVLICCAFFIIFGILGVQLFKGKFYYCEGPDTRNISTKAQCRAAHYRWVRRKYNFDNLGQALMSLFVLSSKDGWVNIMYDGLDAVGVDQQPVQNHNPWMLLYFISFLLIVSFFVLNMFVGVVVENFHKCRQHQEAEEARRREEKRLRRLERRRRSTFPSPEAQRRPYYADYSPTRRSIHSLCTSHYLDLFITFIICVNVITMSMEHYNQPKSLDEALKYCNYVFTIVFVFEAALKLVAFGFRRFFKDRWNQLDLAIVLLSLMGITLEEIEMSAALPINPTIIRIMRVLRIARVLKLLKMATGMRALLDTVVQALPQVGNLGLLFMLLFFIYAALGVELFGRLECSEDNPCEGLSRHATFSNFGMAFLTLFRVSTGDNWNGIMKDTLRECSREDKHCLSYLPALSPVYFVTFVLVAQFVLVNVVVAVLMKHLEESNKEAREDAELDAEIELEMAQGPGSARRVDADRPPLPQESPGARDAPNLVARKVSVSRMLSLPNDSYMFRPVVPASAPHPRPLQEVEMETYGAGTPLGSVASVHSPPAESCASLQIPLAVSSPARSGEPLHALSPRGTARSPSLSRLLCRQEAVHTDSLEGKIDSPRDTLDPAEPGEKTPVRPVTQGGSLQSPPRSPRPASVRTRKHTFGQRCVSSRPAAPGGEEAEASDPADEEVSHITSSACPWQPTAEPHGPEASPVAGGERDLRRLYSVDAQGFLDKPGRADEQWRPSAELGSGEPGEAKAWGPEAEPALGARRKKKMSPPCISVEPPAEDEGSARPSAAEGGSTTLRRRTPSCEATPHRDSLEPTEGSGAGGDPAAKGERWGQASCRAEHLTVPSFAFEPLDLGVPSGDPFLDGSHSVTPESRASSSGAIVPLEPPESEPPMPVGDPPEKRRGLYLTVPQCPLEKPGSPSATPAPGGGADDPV
# Sequence of T-type calcium channel (Homo sapiens, UniProt O95180) (O95180 whole entry): as above
SMILES,IC50 (Human Cav 2.2 channels; [7]),IC50 (T-type calcium channel [1]),IC50 (T-type calcium channel [2]; [8]),IC50 [3],IC50 [4],IC50 [5],other results
N[C@H]1CCCCC1C(=O)NC[C@H]1C[C@H](S(=O)(=O)c2cc(F)cc(C(F)(F)F)c2)C1 (stereo partly shown) [Compound 711],5.16 µM,≥ 10 µM,10 µM,,,,IC50 (Human Cav 2.2 channels; [6]): 10 µM; CAv2.2 IC50 Ratio closed/inact. (Human Cav 2.2 channels; ratio closed/inactivated IC50): 1.9
CC(C)([C@H]1C[C@H](NC(=O)c2cc(C(F)(F)F)n[nH]2)C1)S(=O)(=O)c1cc(F)cc(C(F)(F)F)c1 [Compound 594],0.52 µM,≥ 10 µM,2.35 µM,,,,IC50 (Human Cav 2.2 channels; [6]): 6.08 µM; CAv2.2 IC50 Ratio closed/inact. (Human Cav 2.2 channels; ratio closed/inactivated IC50): 11.7; IC50 (T-type calcium channel [2]; [9]): 9.23 µM
NC1(CC(=O)N2CC(CS(=O)(=O)c3cc(F)cc(C(F)(F)F)c3)C2)CCCCC1 [Compound 749],≥ 10 µM,≥ 10 µM,10 µM,,,,"IC50 (T-type calcium channel [2]; [9]): ≥ 10 µM; CAv3.2 IC50 Ratio closed/inact. (T-type calcium channel [2]; CAv3.2, ratio closed/inact.): 1"
"O=C(CCC(F)(F)F)N[C@H]1CC[C@@](F)(S(=O)(=O)c2cccc(C(F)(F)F)c2)CC1 [Compound 274, 4,4,4-trifluoro-N-((1S,4S)-4-fluoro-4-(3-(trifluoromethyl)phenylsulfonyl)cyclohexyl)butanamide]",,,,530 nM,1.05 µM,2.54 µM,
"O=C(N[C@H]1CC[C@@](F)(S(=O)(=O)c2cccc(C(F)(F)F)c2)CC1)[C@@H]1C[C@@H](c2ccccc2)CN1 [Compound 285, (2S,4S)-N-((1S,4R)-4-fluoro-4-(3-(trifluoromethyl)phenylsulfonyl)cyclohexyl)-4-phenylpyrrolidine-2-carboxamide]",,,,360 nM,1.28 µM,> 10 µM,
"O=C(N[C@H]1CC[C@@](F)(S(=O)(=O)c2cccc(OC(F)(F)F)c2)CC1)c1ccc(F)c(Cl)c1 [Compound 256, 3-chloro-4-fluoro-N-((1S,4S)-4-fluoro-4-(3-(trifluoromethoxy)phenylsulfonyl)cyclohexyl)benzamide]",,,,150 nM,3.32 µM,2.01 µM,
"COc1ccc(C2(C(=O)N[C@H]3CC[C@@](F)(S(=O)(=O)c4cccc(C(F)(F)F)c4)CC3)CC2)cc1 [Compound 276, N-((1S,4S)-4-fluoro-4-(3-(trifluoromethyl)phenylsulfonyl)cyclohexyl)-1-(4-methoxyphenyl) cyclopropanecarboxamide]",,,,380 nM,2.3 µM,> 10 µM,
"CC1(S(=O)(=O)c2cccc(C(F)(F)F)c2)CCC(NC(=O)CNC2CCCCC2)CC1 (stereo not shown) [Compound 17, 2-(cyclohexylamino)-N-(4-methyl-4-(3-(trifluoromethyl)phenylsulfonyl)cyclohexyl)acetamide]",,,,260 nM,1.42 µM,2.33 µM,

# More lines, main results first:
IC50 (Human Cav 2.2 channels; [7]),IC50 (T-type calcium channel [1]),IC50 (T-type calcium channel [2]; [8]),IC50 [3],IC50 [4],IC50 [5],SMILES,other results
1.15 µM,≥ 10 µM,,,,,CC(C)([C@H]1C[C@H](NC(=O)c2ncc(C(F)(F)F)cc2S(C)(=O)=O)C1)S(=O)(=O)c1cc(F)cc(C(F)(F)F)c1 [Compound 591],IC50 (Human Cav 2.2 channels; [6]): 10 µM; CAv2.2 IC50 Ratio closed/inact. (Human Cav 2.2 channels; ratio closed/inactivated IC50): 8.7; IC50 (CAv1.2): ≥ 10 µM
7.22 µM,≥ 10 µM,10 µM,,,,CC(C)([C@H]1C[C@@H](CNc2ccc(Cl)c(F)c2)C1)S(=O)(=O)c1cccc(C(F)(F)F)c1 [Compound 754],CAv2.2 IC50 Ratio closed/inact. (Human Cav 2.2 channels; ratio closed/inact.): 1.4
,,,710 nM,> 10 µM,> 10 µM,"O=C(NC[C@H]1C[C@@H](S(=O)(=O)c2cccc(C(F)(F)F)c2)C1)c1ccc(C(F)(F)F)cn1 [Compound 385, 5-(trifluoromethyl)-N-(((1S,3S)-3-(3-(trifluoromethyl)phenylsulfonyl)cyclobutyl)methyl)picolinamide]",
,,,720 nM,0.76 µM,1.71 µM,"CC(C)S(=O)(=O)c1cc(C(F)(F)F)cnc1C(=O)N[C@H]1CC[C@@H](CS(=O)(=O)c2cccc(C(F)(F)F)c2)CC1 [Compound 342, 3-(isopropylsulfonyl)-5-(trifluoromethyl)-N-((1S,4S)-4-((3-(trifluoromethyl)phenylsulfonyl)methyl)cyclohexyl)picolinamide]",
